Assay results taken from EP4786462A1, “PYRIDONE COMPOUNDS AND PREPARATION METHOD THEREFOR, AND APPLICATION” (Shenzhen Salubris Pharmaceuticals Co., Ltd., priority 2023, dated 2025).

Legend:
[1] = Pharmacokinetic experiment in rats (iv and PO administration); assay type: in vivo; conditions: male, rat, plasma, SD rats, 5 mg/kg; for AUC(0-t): read-out: AUC0-24h
Excerpt: Polyethylene glycol 400 (lot number R22040588, Shanghai Shaoyuan Reagent Co., Ltd.), DMSO (lot number 20200319, Guangdong Guanghua Sci-Tech Co., Ltd.), Sodium Chloride Physiological Solution (lot number 2011110727, Chenxin Pharmaceutical Co., Ltd.). LC-MS instrument (Thermo Fisher Ultimate 3000 UPLC, TSQ QUANTUM ULTRA triple quadrupole mass spectrometer, AB SCIEX 5500+ QTARP).
SD rats: Male, 180-250 g, purchased from Guangdong Vital River Laboratory Animal Technology Co., Ltd.
The test compound powder was accurately weighed and completely dissolved in DMSO. PEG-400 was added, vortexed and sonicated to mix, then sodium chloride physiological solution was added, vortexed and sonicated to mix to form a 0.5 mg/mL solution (DMSO:PEG-400:NS = 5:60:35, V/V/V). For oral gavage administration, the dose was 10 mL/kg; for intravenous administration, the dose was 2 mL/kg.
After intravenous or oral gavage administration to rats, venous blood (200 µL) was collected at 5 min (not collected for oral gavage administration), 15 min, 30 min, 1 h, 2 h, 5 h, 7 h, and 24 h into EDTA-K2-anticoagulated EP tubes. The samples were centrifuged at 10000 rpm for 2 min, and the plasma was collected and stored at -80 °C until analysis.
A certain amount of the test compound was accurately weighed and dissolved in DMSO to 2 mg/mL as a stock solution. An appropriate volume of the compound stock solution was accurately transferred and diluted with acetonitrile to prepare a series of standard solutions. 4 µL of each standard solution was accurately transferred, and 36 µL of blank plasma was added, vortexed to mix, to prepare plasma samples equivalent to plasma concentrations of 1, 3, 5, 10, 30, 100, 300, 1000, 3000 ng/mL. Each concentration was analyzed in duplicate to establish a standard curve. 30 µL of plasma was taken, and 200 µL of an acetonitrile solution containing internal standard propranolol (5 ng/mL) was added. After vortex mixing, the samples were centrifuged at 4000 rpm for 10 min, and the supernatant was taken for LC-MS analysis. The LC-MS detection conditions were as follows: Column: YMC-Triart C18, 50×2.1 mm, S-3µm, 12 nm.
Mobile phase A: water (0.1% formic acid), mobile phase B: acetonitrile, flow rate: 0.5 mL/min, gradient elution as shown in Table 2 below: Table 2
After detecting plasma concentrations by LC-MS, pharmacokinetic parameters in rats after administration were calculated using a non-compartmental model with WinNonlin 6.1 software. Table 3: Pharmacokinetic Parameters of the Compound of the Present Disclosure in Rats (iv and PO Administration)

hERG channel = target: T1, hERG channel (Homo sapiens, UniProt Q12809); assay: Effect on hERG current in hERG-HEK293 cells (automated patch-clamp); assay type: cell-based; conditions: 30 µM compound, peak tail current vs 0.3% DMSO
T1 construct: expressed in transfected cells
T1 sequence (Q12809 whole entry): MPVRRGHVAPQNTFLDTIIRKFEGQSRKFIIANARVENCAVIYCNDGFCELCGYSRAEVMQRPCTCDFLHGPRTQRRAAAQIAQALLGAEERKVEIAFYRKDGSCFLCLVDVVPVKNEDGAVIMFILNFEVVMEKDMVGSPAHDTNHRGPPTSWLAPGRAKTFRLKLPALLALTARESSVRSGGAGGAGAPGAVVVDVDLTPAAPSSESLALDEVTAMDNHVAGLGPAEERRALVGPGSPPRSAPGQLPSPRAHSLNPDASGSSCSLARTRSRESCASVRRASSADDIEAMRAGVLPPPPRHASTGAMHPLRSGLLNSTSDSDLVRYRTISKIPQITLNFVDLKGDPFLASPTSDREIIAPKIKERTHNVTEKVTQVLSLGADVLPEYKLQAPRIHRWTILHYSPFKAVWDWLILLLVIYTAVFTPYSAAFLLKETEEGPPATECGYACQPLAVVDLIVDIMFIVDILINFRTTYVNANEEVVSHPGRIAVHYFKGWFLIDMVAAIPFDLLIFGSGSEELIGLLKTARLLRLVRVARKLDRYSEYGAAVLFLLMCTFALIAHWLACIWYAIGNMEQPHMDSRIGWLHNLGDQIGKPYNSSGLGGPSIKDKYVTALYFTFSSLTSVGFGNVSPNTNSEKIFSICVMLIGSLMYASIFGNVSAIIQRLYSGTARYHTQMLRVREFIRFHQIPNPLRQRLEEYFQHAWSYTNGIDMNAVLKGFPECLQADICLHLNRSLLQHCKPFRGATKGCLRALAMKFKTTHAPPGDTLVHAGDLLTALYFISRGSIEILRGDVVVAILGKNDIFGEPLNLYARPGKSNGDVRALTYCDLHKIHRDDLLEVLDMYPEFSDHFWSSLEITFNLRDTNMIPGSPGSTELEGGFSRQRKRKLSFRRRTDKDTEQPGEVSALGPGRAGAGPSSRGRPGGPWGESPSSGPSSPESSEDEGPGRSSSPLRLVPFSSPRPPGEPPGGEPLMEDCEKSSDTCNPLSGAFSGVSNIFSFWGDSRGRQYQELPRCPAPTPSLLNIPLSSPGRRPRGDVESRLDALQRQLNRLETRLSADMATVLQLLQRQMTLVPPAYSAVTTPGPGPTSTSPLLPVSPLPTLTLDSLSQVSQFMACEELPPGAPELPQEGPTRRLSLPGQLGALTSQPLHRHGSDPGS

| SMILES | AUC(0-t) [1] [µg·h/mL] | hERG Inhibition (%) (hERG channel) | also measured |
| --- | --- | --- | --- |
| O=c1c(Cl)cccn1-c1ccc(N[C@H]2CC[C@H](Nc3ncc(OC(F)F)cn3)C2)nc1 [Example A9, 3-chloro-6'-(((1S,3S)-3-((5-(difluoromethoxy)pyrimidin-2-yl)amino)cyclopentyl)amino)-2H-[1,3 '-bipyridin]-2-one] | 29.4 |  |  |
| N#Cc1cccn(-c2ccc(N[C@H]3CC[C@H](Nc4ncc(OC(F)F)cn4)C3)nc2)c1=O [Example A13, 6'-(((1S,3S)-3-((5-(difluoromethoxy)pyrimidin-2-yl)amino)cyclopentyl)amino)-2-oxo-2H-[1,3'-bipyridine]-3-carbonitrile] | 42.5 |  | half-life [1]: 6.02 h |
| O=c1c(F)cccn1-c1ccc(N[C@H]2CC[C@H](Nc3ncc(OC(F)F)cn3)C2)nc1 [Example A14, 6'-(((1S,3S)-3-((5-(difluoromethoxy)pyrimidin-2-yl)amino)cyclopentyl)amino)-3-fluoro-2H-[1,3' -bipyridin]-2-one] | 31.4 |  | half-life [1]: 4.42 h |
| O=c1ccccn1-c1cnc(N[C@H]2CC[C@H](Nc3ncc(OC(F)F)cn3)C2)c(F)c1 [Example A17, 6'-(((1S,3S)-3-((5-(difluoromethoxy)pyrimidin-2-yl)amino)cyclopentyl)amino)-5'-fluoro-2H-[1,3 '-bipyridin]-2-one] | 43.8 |  | half-life [1]: 2.97 h |
| O=C(O)c1cccn(-c2ccc(N[C@H]3CC[C@H](Nc4ncc(OC(F)F)cn4)C3)nc2)c1=O [Example A22, 6'-(((1S,3S)-3-((5-(difluoromethoxy)pyrimidin-2-yl)amino)cyclopentyl)amino)-2-oxo-2H-[1,3'-bipyridine]-3-carboxylic acid] |  |  | 30 uM-hERG Inhibition (hERG channel): 19.56 |
| COc1cc(-n2ccccc2=O)cnc1N[C@H]1CC[C@H](Nc2ncc(OC(F)F)cn2)C1 [Example A27, 6'-(((1S,3S)-3-((5-(difluoromethoxy)pyrimidin-2-yl)amino)cyclopentyl)amino)-5'-methoxy-2H-[1,3'-bipyridin]-2-one] | 32 |  | half-life [1]: 3.89 h; 30 uM-hERG Inhibition (hERG channel): 40.72 |
| O=c1cccnn1-c1cnc(N[C@H]2CC[C@H](Nc3ncc(OC(F)F)cn3)C2)c(F)c1 [Example A28, 2-(6-(((1S,3S)-3-((5-(difluoromethoxy)pyrimidin-2-yl)amino)cyclopentyl)amino)-5-fluoropyridin-3-yl)pyridazin-3(2H)-one] | 70.1 |  |  |
| O=c1ccccn1-c1cnc(N[C@H]2CC[C@H](Nc3ncc(OC(F)F)cn3)C2)c(CO)c1 [Example A30] |  |  | 30 uM-hERG Inhibition (hERG channel): 33.75 |
| CC(O)c1cccn(-c2ccc(N[C@H]3CC[C@H](Nc4ncc(OC(F)F)cn4)C3)nc2)c1=O (stereo partly drawn) [Example A35, 6'-(((1S,3S)-3-((5-(difluoromethoxy)pyrimidin-2-yl)amino)cyclopentyl)amino)-3-(1-hydroxyethyl)-2H-[1,3'-bipyridin]-2-one] | 60.1 |  | half-life [1]: 14.9 h; 30 uM-hERG Inhibition (hERG channel): 33.81 |
| O=c1ccccn1-c1ccc(N[C@H]2CC[C@H](Nc3nc4ccccn4n3)C2)nc1 [Example C7, 6'-(((1S,3S)-3-([1,2,4]triazolo[1,5-a]pyridin-2-ylamino)cyclopentyl)amino)-2H-[1,3'-bipyridin]-2-one] |  | <50 |  |
| COc1ccn2nc(N[C@H]3CC[C@H](Nc4ccc(-n5ccccc5=O)cn4)C3)nc2c1 [Example C8, 6'-(((1S,3S)-3-((7-methoxy-[1,2,4]triazolo[1,5-a]pyridin-2-yl)amino)cyclopentyl)amino)-2H-[1,3 '-bipyridin]-2-one] |  | <50 |  |
| O=c1ccccn1-c1cnc(N[C@H]2CC[C@H](Nc3nc4ccccn4n3)C2)cn1 [Example C9, 1-(5-(((1S,3S)-3-([1,2,4]triazolo[1,5-a]pyridin-2-ylamino)cyclopentyl)amino)pyrazin-2-yl)pyridi n-2(1H)-one] | 40.3 |  |  |
| O=c1ccccn1-c1ccc(N[C@H]2CC[C@H](Nc3nc4cccnc4s3)C2)nc1 [Example C15] |  | <50 |  |
| O=c1ccccn1-c1cnc(N[C@H]2CC[C@H](Nc3nc4ccccn4n3)C2)c(F)c1 [Example C17, 6'-(((1S,3S)-3-([1,2,4]triazolo[1,5-a]pyridin-2-ylamino)cyclopentyl)amino)-5'-fluoro-2H-[1,3'-bipyridin]-2-one] | 39.8 | <50 |  |
| O=c1ccccn1-c1cnc(N[C@H]2CC[C@H](Nc3nc4nccnc4s3)C2)c(F)c1 [Example C19] |  | <50 |  |
| COc1ccc2nc(N[C@H]3CC[C@H](Nc4ccc(-n5ccccc5=O)cn4)C3)nn2c1 [Example C21] |  | <50 |  |
| O=c1ccccn1-c1cnc(N[C@H]2CC[C@H](Nc3nc4cccnc4s3)C2)c(F)c1 [Example C22] | 37.7 | <50 |  |
| C#Cc1ccc2nc(N[C@H]3CC[C@H](Nc4ccc(-n5ccccc5=O)cn4)C3)nn2c1 [Example C26] |  | <50 |  |
| O=c1ccccn1-c1ccc(N[C@H]2CC[C@H](Nc3nc4ncccn4n3)C2)nc1 [Example C30] |  | <50 |  |

| SMILES | AUC(0-t) [1] [µg·h/mL] | hERG Inhibition (%) (hERG channel) | also measured |
| --- | --- | --- | --- |
| Cc1ccc2nc(N[C@H]3CC[C@H](Nc4ccc(-n5ccccc5=O)cn4)C3)nn2c1 [Example C32] |  | <50 |  |
| O=c1cccnn1-c1cnc(N[C@H]2CC[C@H](Nc3nc4cccnc4s3)C2)c(F)c1 [Example C34] | 41.4 | <50 |  |
| O=c1cccnn1-c1ccc(N[C@H]2CC[C@H](Nc3nc4cccnc4s3)C2)nc1 [Example C35] | 39.7 | <50 |  |
| O=c1c(Cl)cccn1-c1cnc(N[C@H]2CC[C@H](Nc3nc4ccccn4n3)C2)c(F)c1 [Example C36] |  | <50 |  |
| O=c1cccnn1-c1ccc(N[C@H]2CC[C@H](Nc3nc4ccccn4n3)C2)nc1 [Example C43] |  | <50 |  |
| O=c1cccnn1-c1cnc(N[C@H]2CC[C@H](Nc3nc4ccccn4n3)C2)c(F)c1 [Example C47, 2-(6-(((1S,3S)-3-([1,2,4]triazolo[1,5-a]pyridin-2-ylamino)cyclopentyl)amino)-5-fluoropyridin-3-yl)pyridazin-3(2H)-one] | 53 | <50 |  |
| O=c1cccnn1-c1cnc(N[C@H]2CC[C@H](Nc3nc4cccnc4o3)C2)c(F)c1 [Example C48] |  | <50 |  |
| O=c1ccccn1-c1cnc(N[C@H]2CC[C@H](Nc3nc4cccnc4o3)C2)c(F)c1 [Example C53] |  | <50 |  |
| O=c1ccccn1-c1cnc(N[C@H]2CC[C@H](Nc3nc4cccnc4[nH]3)C2)c(F)c1 [Example C56] |  | <50 |  |
| O=c1c(C2CC2)cccn1-c1ccc(N[C@H]2CC[C@H](Nc3nc4cccnc4[nH]3)C2)nc1 [Example C58] |  | <50 |  |
| O=c1c(Cl)cccn1-c1cnc(N[C@H]2CC[C@H](Nc3nc4cccnc4[nH]3)C2)c(F)c1 [Example C61] |  | <50 |  |
| Cn1c(=O)n(-c2ccc(N[C@H]3CC[C@H](Nc4nc5ccccn5n4)C3)nc2)c2cc(C#N)ccc21 [Example C64] |  | <50 |  |
| O=c1c(Cl)ccnn1-c1ccc(N[C@H]2CC[C@H](Nc3nc4ccccn4n3)C2)nc1 [Example C65] |  | <50 |  |
| O=c1cccnn1-c1ccc(N[C@H]2CC[C@H](Nc3nc4cccnc4[nH]3)C2)nc1 [Example C66] |  | <50 |  |
| O=c1c(Cl)ccnn1-c1cnc(N[C@H]2CC[C@H](Nc3nc4ccccn4n3)C2)c(F)c1 [Example C67] |  | <50 |  |
| O=c1cccnn1-c1cnc(N[C@H]2CC[C@H](Nc3nc4cccnc4[nH]3)C2)c(F)c1 [Example C69] |  | <50 |  |
| O=c1ccc2cccnc2n1-c1ccc(N[C@H]2CC[C@H](Nc3nc4ccccn4n3)C2)nc1 [Example C71] |  | <50 |  |
| O=c1ccc2cccnc2n1-c1ccc(N[C@H]2CC[C@H](Nc3nc4cccnc4s3)C2)nc1 [Example C84] |  | <50 |  |
